Assay results published in EP0643558B1, “SANITIZING COMPOSITIONS” (ECOLAB INC., priority 1991, dated 1992).

Key:
Assay type in all cases: cell-based
Escherichia coli = experiment: A.O.A.C. Sanitizing Test (Germicidal and Detergent Sanitizing Action of Disinfectants, para. 960.09); settings: use solutions, 0.1 wt-% fatty acid + 0.1 wt-% lactic acid (88% w/v) in distilled water, solution pH 2.96-2.97
From the text: (§1) A sanitizer is an agent that reduces the number of bacterial contaminants to safe levels as judged by public health requirements. Practically, a sanitizer must result in 99.999% reduction (5 log order reduction) for given organisms as defined by Germicidal and Detergent Sanitizing Action of Disinfectants, Official Methods of Analysis of the Association of Official Analytical Chemists, paragraph 960.09 and applicable sections, 15th Edition, 1990 (EPA Guideline 91-2). In common practice, substances that are applied to food contact surfaces for antimicrobial purposes must meet this requirement. It has now been discovered that a sanitizer comprising octanoic acid (C8) plus a food additive organic or inorganic acid buffer does indeed meet all of the criteria set forth for a food grade sanitizer. […] Table 1A is a summary of compositions and Table 1B is a summary of their bactericidal activity as determined by the official A.O.A.C. Sanitizing Test. (Germicidal and Detergent Sanitizing Action of Disinfectants, Official Methods of Analysis of the Association of Official Analytical Chemists, paragraph 960.09 and applicable sections, 15th Edition, 1990, EPA guideline 91-2). The octanoic acid is indeed very unique, peaking out at seven log order reductions with both a gram positive (Staphylococcus aureus) and a gram negative (Escherichia coli) bacteria and passes the test requirement for a sanitizing agent. […] Examples IA through IE represent use solutions of the sanitizers.

Staphylococcus aureus = experiment: as above; settings: use solutions, 0.1 wt-% fatty acid + 0.1 wt-% lactic acid (88% w/v) in distilled water, solution pH 2.96-2.97
From the text: as §1

Aspergillus niger = experiment: Fungicidal activity, A.O.A.C. Disinfection Test Method; settings: spores of Aspergillus niger, compared with the other test organisms of Table 5B
From the text: A disinfectant is an agent that kills all vegetative cells including most recognized pathogenic microorganisms. As such, it must pass a more stringent bactericidal test; the A.O.A.C. Use Dilution Methods, Official Methods of Analysis of the Association of Official Analytical Chemists, paragraph 955.14 and applicable sections, 15th Edition, 1990 (EPA Guideline 91-2). […] Disinfection Test Method. […]

Compound | Results Log Reductions Col. Forming Units E. coli (Escherichia coli) | Results Log Reductions Col. Forming Units S. aureus (Staphylococcus aureus) | concentration for complete kill (Aspergillus niger)
CCCCCCCCCC(=O)O [decanoic acid, reference compound] | possesses some activity | possesses some activity | 
CCCCCCCC(=O)O [octanoic acid, Octanoic acid] | seven | seven | required a higher concentration for complete kill
